Reference: US20100267561A1, “HERBICIDAL PYRIDAZINONE DERIVATIVES” (priority 2007, published 2010)

Legend:
Assay in all cases: Test B pre-/postemergence plant response
Format in all cases: in vivo
[1] = tested on: pigweed (Amaranthus retroflexus); details: for Pigweed plant response rating: 8 g ai/ha
How it was run: (§1)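 Seeds were sown and sprayed preemergence, while plants at 2 to 18 cm (1- to 4-leaf stage) got postemergence sprays. Compounds were formulated in a non-phytotoxic solvent mixture with surfactant. After 13 to 15 days in a greenhouse, injury was rated visually against untreated controls, 0 (no effect) to 100 (complete control).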

[2] = tested on: eastern black (E.B.) nightshade (Solanum ptycanthum); details: Preemergence
How it was run: as §1

[3] = tested on: woolly cupgrass (Eriochloa villosa); details: for Cupgrass, Woolly plant response rating: 8 g ai/ha
How it was run: as §1

[4] = tested on: kochia (Kochia scoparia)
How it was run: as §1

[5] = tested on: surinam grass (Brachiaria decumbens); details: for Surinam Grass plant response rating: 8 g ai/ha
How it was run: as §1

[6] = tested on: Russian thistle (Salsola iberica); details: Preemergence
How it was run: as §1

[7] = tested on: downy bromegrass (Bromus tectorum); details: for Bromegrass, Downy plant response rating: 8 g ai/ha
How it was run: as §1

[8] = tested on: soybean (Glycine max); details: for Plant response rating, Soybean: Postemergence
How it was run: as §1

[9] = tested on: velvetleaf (Abutilon theophrasti); details: for Velvetleaf plant response rating: 8 g ai/ha
How it was run: as §1

[10] = tested on: bermudagrass (Cynodon dactylon); details: for Bermudagrass plant response rating: 8 g ai/ha
How it was run: as §1

[11] = tested on: Italian ryegrass (Lolium multiflorum); details: for Ryegrass, Italian plant response rating: 8 g ai/ha
How it was run: as §1

[12] = tested on: corn (Zea mays); details: for Corn plant response rating: 8 g ai/ha
How it was run: as §1

[13] = tested on: morningglory (Ipomoea coccinea); details: for Morningglory plant response rating: 8 g ai/ha
How it was run: as §1

[14] = tested on: green foxtail (Setaria viridis); details: for Foxtail, Green plant response rating: 8 g ai/ha
How it was run: as §1

[15] = Postemergence, 16 g ai/ha, scale 0 to 100
[16] = Postemergence, 31 g ai/ha, scale 0 to 100, 0 no effect, 100 complete control
[17] = Postemergence, 62 g ai/ha, scale 0 to 100
[18] = Preemergence, 16 g ai/ha, scale 0 to 100 (0 no effect, 100 complete control)
[19] = Preemergence, 31 g ai/ha, 0 to 100 scale, 0 no effect, 100 complete control
[20] = Preemergence, 62 g ai/ha, scale 0 to 100
[21] = 16 g ai/ha, scale 0 to 100 (0 no effect, 100 complete control)
[22] = 8 g ai/ha, postemergence, 0-100 scale

CCc1cc(-c2ccc(Cl)c(Cl)c2)nn1-c1c(O)cnn(C)c1=O [Compound 20]
Pigweed plant response rating ([1]; postemergence, 0-100 scale): 0 | Plant response rating, Pigweed [1, 15]: 0 | Plant response rating, Pigweed [1, 16]: 0 | Plant response rating, Pigweed [1, 17]: 0 | Plant response rating, Pigweed [1, 18]: 0 | Plant response rating, Pigweed [1, 19]: 0 | Plant response rating, Pigweed [1, 20]: 0 | Pigweed plant response rating ([1]; Preemergence, scale 0 to 100): 0 | Plant response rating, Nightshade, E. B. [2, 21]: 0 | Plant response rating, Nightshade, E. B. ([2]; 62 g ai/ha, scale 0 to 100): 0 | Nightshade, E. B. plant response rating ([2]; 8 g ai/ha, scale 0 to 100): 0 | Cupgrass, Woolly plant response rating ([3]; postemergence, 0-100 scale): 45 | Plant response rating, Cupgrass, Woolly [3, 15]: 90 | Plant response rating, Cupgrass, Woolly [3, 16]: 90 | Plant response rating, Cupgrass, Woolly [3, 17]: 100 | Plant response rating, Cupgrass, Woolly [3, 18]: 30 | Plant response rating, Cupgrass, Woolly [3, 19]: 50 | Plant response rating, Cupgrass, Woolly [3, 20]: 98 | Cupgrass, Woolly plant response rating ([3]; Preemergence, scale 0 to 100): 0 | Kochia plant response rating [4, 22]: 0 | Plant response rating, Kochia [4, 15]: 0 | Plant response rating, Kochia [4, 16]: 0 | Plant response rating, Kochia [4, 17]: 0 | Plant response rating, Kochia [4, 18]: 0 | Plant response rating, Kochia [4, 19]: 0 | Plant response rating, Kochia [4, 20]: 0 | Surinam Grass plant response rating ([5]; postemergence, 0-100 scale): 60 | Plant response rating, Surinam Grass [5, 15]: 90 | Plant response rating, Surinam Grass [5, 16]: 90 | Plant response rating, Surinam Grass [5, 17]: 100 | Plant response rating, Surinam Grass [5, 18]: 20 | Plant response rating, Surinam Grass [5, 19]: 50 | Plant response rating, Surinam Grass [5, 20]: 100 | Surinam Grass plant response rating ([5]; Preemergence, scale 0 to 100): 0 | Plant response rating, Russian Thistle [6, 21]: 0 | Plant response rating, Russian Thistle ([6]; 31 g ai/ha, 0 to 100 scale, 0 no effect, 100 complete control): 0 | Plant response rating, Russian Thistle ([6]; 62 g ai/ha, scale 0 to 100): 0 | Bromegrass, Downy plant response rating ([7]; postemergence, 0-100 scale): 0 | Plant response rating, Bromegrass, Downy [7, 15]: 0 | Plant response rating, Bromegrass, Downy [7, 16]: 40 | Plant response rating, Bromegrass, Downy [7, 17]: 50 | Plant response rating, Bromegrass, Downy [7, 18]: 0 | Plant response rating, Bromegrass, Downy [7, 19]: 0 | Plant response rating, Bromegrass, Downy [7, 20]: 0 | Bromegrass, Downy plant response rating ([7]; Preemergence, scale 0 to 100): 0 | Soybean plant response rating [8, 22]: 0 | Plant response rating, Soybean ([8]; 16 g ai/ha, scale 0 to 100): 0 | Plant response rating, Soybean ([8]; 31 g ai/ha, scale 0 to 100, 0 no effect, 100 complete control): 0 | Plant response rating, Soybean ([8]; 62 g ai/ha, scale 0 to 100): 0 | Velvetleaf plant response rating ([9]; postemergence, 0-100 scale): 0 | Plant response rating, Velvetleaf [9, 15]: 0 | Plant response rating, Velvetleaf [9, 16]: 0 | Plant response rating, Velvetleaf [9, 17]: 0 | Plant response rating, Velvetleaf [9, 18]: 0 | Plant response rating, Velvetleaf [9, 19]: 0 | Plant response rating, Velvetleaf [9, 20]: 0 | Velvetleaf plant response rating ([9]; Preemergence, scale 0 to 100): 0 | Bermudagrass plant response rating ([10]; postemergence, 0-100 scale): 0 | Plant response rating, Bermudagrass [10, 15]: 0 | Plant response rating, Bermudagrass [10, 16]: 0 | Plant response rating, Bermudagrass [10, 17]: 0 | Bermudagrass plant response rating ([10]; Preemergence, scale 0 to 100 (0 no effect, 100 complete control)): 0 | Plant response rating, Bermudagrass [10, 18]: 0 | Plant response rating, Bermudagrass [10, 19]: 0 | Plant response rating, Bermudagrass [10, 20]: 70 | Ryegrass, Italian plant response rating ([11]; postemergence, 0-100 scale): 40 | Plant response rating, Ryegrass, Italian [11, 15]: 55 | Plant response rating, Ryegrass, Italian [11, 16]: 90 | Plant response rating, Ryegrass, Italian [11, 17]: 90 | Plant response rating, Ryegrass, Italian [11, 18]: 35 | Plant response rating, Ryegrass, Italian [11, 19]: 40 | Plant response rating, Ryegrass, Italian [11, 20]: 90 | Ryegrass, Italian plant response rating ([11]; Preemergence, scale 0 to 100): 30 | Corn plant response rating ([12]; postemergence, 0-100 scale): 0 | Plant response rating, Corn [12, 15]: 90 | Plant response rating, Corn [12, 16]: 95 | Plant response rating, Corn [12, 18]: 5 | Plant response rating, Corn [12, 19]: 80 | Plant response rating, Corn [12, 20]: 95 | Corn plant response rating ([12]; Preemergence, scale 0 to 100): 0 | Morningglory plant response rating ([13]; postemergence, 0-100 scale): 0 | Plant response rating, Morningglory [13, 15]: 0 | Plant response rating, Morningglory [13, 16]: 0 | Plant response rating, Morningglory [13, 17]: 0 | Plant response rating, Morningglory [13, 18]: 0 | Plant response rating, Morningglory [13, 19]: 0 | Plant response rating, Morningglory [13, 20]: 0 | Morningglory plant response rating ([13]; Preemergence, scale 0 to 100): 0 | Foxtail, Green plant response rating ([14]; postemergence, 0-100 scale): 20 | Plant response rating, Foxtail, Green [14, 15]: 60 | Plant response rating, Foxtail, Green [14, 16]: 85 | Plant response rating, Foxtail, Green [14, 17]: 95 | Plant response rating, Foxtail, Green [14, 18]: 95 | Plant response rating, Foxtail, Green [14, 19]: 100 | Plant response rating, Foxtail, Green [14, 20]: 100 | Foxtail, Green plant response rating ([14]; Preemergence, scale 0 to 100): 20
